{"source": "patent US20260256792A1", "about": "“TREATMENT OF CHRONIC SPONTANEOUS URTICARIA BY ADMINISTERING (R)-2-[3-[4-AMINO-3-(2-FLUORO-4-PHENOXY-PHENYL)PYRAZOLO[3,4-D]PYRIMIDIN-1-YL]PIPERIDINE-1-CARBONYL]-4-METHYL-4-[4-(OXETAN-3-YL)PIPERAZIN-1-YL]PENT-2-ENENITRILE” (priority 2023, published 2026)", "system": "moderate-to-severe chronic spontaneous urticaria (CSU)", "test": "Phase 2 CSU study: urticaria activity score over 7 days (UAS7)", "type": "in vivo, human", "parameters": "key to UAS7 Median / UAS7 Change from baseline Median / UAS7 change from baseline, Q1 / UAS7 change from baseline, Q3 / UAS7 change from baseline, Max / UAS7 Change from baseline LS Mean (SE): UAS7 points; daily UAS score ranges 0–6 points/day, over 7 days", "from_the_text": "The study comprises a 12 week, randomized, double-blind, placebo-controlled, multi-center, dose-ranging efficacy and safety phase, followed by a 40 week open label extension (OLE) phase (see FIG. 1). The study consists of three phases and an optional OLE phase. […] Clinically, CSU is characterized by the spontaneous and recurrent appearance of pruritic hives. The proposed primary endpoints were the UAS7 at Week 12 in EU and EU reference countries and the ISS7 in the US. Regardless of where a participant was from, all assessments were the same. The UAS7 score is a composite score containing both the HSS7 and the ISS7. This allowed a global assessment of the two key components of urticaria: hives and itch. […] The UAS is a validated PRO measure. […] The daily UAS scores range from 0 to 6 point/day. […] Patients were to complete the UAS using the e-diary. […] The following secondary endpoints were to be analyzed using the same approach as for the primary endpoint: • Change from baseline in UAS7 at Week 4 • Change from baseline in UAS7 at Week 12 (for US and US reference countries) • Change from baseline in ISS7 at Week 12 (except US and US reference countries) • Change from baseline in HSS7 at Week 12 The following responder secondary endpoints were to be analyzed using the Cochran-Mantel-Haenszel test adjusted by region: • Proportion of participants with UAS7<6 at Week 12 • Proportion of participants with UAS7=0 at Week 12 Participants who received selected prohibited medications and/or rescue medications were to be considered as non-responders for time points after the medication usage. For other participants, all available data including those collected during the off-treatment period were to be used to determine the responder/non-responder status. Missing data were to be considered as non-responders.", "key": {"[1]": {"settings": "Week 6, 400 mg BID, ITT population"}, "[2]": {"settings": "Week 6, 400 mg BID, Omalizumab-Naïve"}, "[3]": {"settings": "Week 6, 400 mg BID, Prior Omalizumab Use"}, "[4]": {"settings": "Week 6, 400 mg BID, omalizumab-naive participants"}, "[5]": {"settings": "Week 6, 400 mg QPM, ITT population"}, "[6]": {"settings": "Week 6, 400 mg QPM, Omalizumab-Naïve"}, "[7]": {"settings": "Week 6, 400 mg QPM, Prior Omalizumab Use"}, "[8]": {"settings": "Week 6, 400 mg QPM, omalizumab-naive participants"}, "[9]": {"settings": "Week 6, 400 mg TID, ITT population"}, "[10]": {"settings": "Week 6, 400 mg TID, Omalizumab-Naïve"}, "[11]": {"settings": "Week 6, 400 mg TID, Prior Omalizumab Use"}, "[12]": {"settings": "Week 6, 400 mg TID, omalizumab-naive participants"}, "[13]": {"settings": "Week 7, 400 mg BID, ITT population"}, "[14]": {"settings": "Week 7, 400 mg BID, Omalizumab-Naïve"}}}
{"smiles": "CC(C)(C=C(C#N)C(=O)N1CCC[C@@H](n2nc(-c3ccc(Oc4ccccc4)cc3F)c3c(N)ncnc32)C1)N1CCN(C2COC2)CC1", "note": "[rilzabrutinib, (R)-2-[3-[4-amino-3-(2-fluoro-4-phenoxy-phenyl)pyrazolo[3,4-d]pyrimidin-1-yl]piperidine-1-carbonyl]-4-methyl-4-[4-(oxetan-3-yl)piperazin-1-yl]pent-2-enenitrile]", "values": [{"measurement": "OR for rilzabrutinib vs. placebo, UAS7 reduction of 10 points or more", "setting": "[1]", "result": 1.222}, {"measurement": "RRD (%) for rilzabrutinib vs. placebo, UAS7 reduction of 10 points or more", "setting": "[1]", "result": 4.9, "unit": "%"}, {"measurement": "Responder, UAS7 reduction from baseline of 10 points or more", "setting": "[1]", "result": "21 (51.2) n (%)"}, {"measurement": "UAS7 Change from baseline Mean (SD)", "setting": "[2]", "result": "−12.76 (11.42)"}, {"measurement": "UAS7 Mean (SD)", "setting": "[2]", "result": "17.02 (12.76)"}, {"measurement": "UAS7 Median", "setting": "[2]", "result": 16.50}, {"measurement": "UAS7 Percent change from baseline Mean (SD)", "setting": "[2]", "result": "−43.89 (39.18) %"}, {"measurement": "UAS7 Percent change from baseline Median", "setting": "[2]", "result": "−38.06", "unit": "%"}, {"measurement": "UAS7 Change from baseline Mean (SD)", "setting": "[3]", "result": "−18.97 (18.81)"}, {"measurement": "UAS7 Change from baseline Median", "setting": "[3]", "result": "−26.00"}, {"measurement": "UAS7 Mean (SD)", "setting": "[3]", "result": "13.03 (15.45)"}, {"measurement": "UAS7 Median", "setting": "[3]", "result": 5.83}, {"measurement": "UAS7 Percent change from baseline Mean (SD)", "setting": "[3]", "result": "−54.26 (54.98) %"}, {"measurement": "UAS7 Percent change from baseline Median", "setting": "[3]", "result": "−86.11", "unit": "%"}, {"measurement": "Non-responder, UAS7 reduction from baseline of 10 points or more", "setting": "[4]", "result": "17 (48.6) n (%)"}, {"measurement": "OR for rilzabrutinib vs. placebo, UAS7 reduction of 10 points or more", "setting": "[4]", "result": 1.486}, {"measurement": "RRD (%) for rilzabrutinib vs. placebo, UAS7 reduction of 10 points or more", "setting": "[4]", "result": 9.8, "unit": "%"}, {"measurement": "Responder, UAS7 reduction from baseline of 10 points or more", "setting": "[4]", "result": "18 (51.4) n (%)"}, {"measurement": "Non-responder, UAS7 reduction from baseline of 10 points or more", "setting": "[5]", "result": "22 (57.9) n (%)"}, {"measurement": "OR for rilzabrutinib vs. placebo, UAS7 reduction of 10 points or more", "setting": "[5]", "result": 0.959}, {"measurement": "RRD (%) for rilzabrutinib vs. placebo, UAS7 reduction of 10 points or more", "setting": "[5]", "result": "−1.0", "unit": "%"}, {"measurement": "Responder, UAS7 reduction from baseline of 10 points or more", "setting": "[5]", "result": "16 (42.1) n (%)"}, {"measurement": "UAS7 Change from baseline Mean (SD)", "setting": "[6]", "result": "−11.79 (10.56)"}, {"measurement": "UAS7 Change from baseline Median", "setting": "[6]", "result": "−9.00"}, {"measurement": "UAS7 Mean (SD)", "setting": "[6]", "result": "20.21 (10.42)"}, {"measurement": "UAS7 Median", "setting": "[6]", "result": 18.25}, {"measurement": "UAS7 Percent change from baseline Mean (SD)", "setting": "[6]", "result": "−35.97 (30.17) %"}, {"measurement": "UAS7 Percent change from baseline Median", "setting": "[6]", "result": "−37.30", "unit": "%"}, {"measurement": "UAS7 Change from baseline Mean (SD)", "setting": "[7]", "result": "−24.00 (NC)"}, {"measurement": "UAS7 Change from baseline Median", "setting": "[7]", "result": "−24.00"}, {"measurement": "UAS7 Mean (SD)", "setting": "[7]", "result": "17.00 (NC)"}, {"measurement": "UAS7 Median", "setting": "[7]", "result": 17.00}, {"measurement": "UAS7 Percent change from baseline Mean (SD)", "setting": "[7]", "result": "−58.54 (NC) %"}, {"measurement": "UAS7 Percent change from baseline Median", "setting": "[7]", "result": "−58.54", "unit": "%"}, {"measurement": "Non-responder, UAS7 reduction from baseline of 10 points or more", "setting": "[8]", "result": "22 (59.5) n (%)"}, {"measurement": "OR for rilzabrutinib vs. placebo, UAS7 reduction of 10 points or more", "setting": "[8]", "result": 0.981}, {"measurement": "RRD (%) for rilzabrutinib vs. placebo, UAS7 reduction of 10 points or more", "setting": "[8]", "result": "−0.5", "unit": "%"}, {"measurement": "Responder, UAS7 reduction from baseline of 10 points or more", "setting": "[8]", "result": "15 (40.5) n (%)"}, {"measurement": "Non-responder, UAS7 reduction from baseline of 10 points or more", "setting": "[9]", "result": "16 (39.0) n (%)"}, {"measurement": "OR for rilzabrutinib vs. placebo, UAS7 reduction of 10 points or more", "setting": "[9]", "result": 1.787}, {"measurement": "RRD (%) for rilzabrutinib vs. placebo, UAS7 reduction of 10 points or more", "setting": "[9]", "result": 14.2, "unit": "%"}, {"measurement": "Responder, UAS7 reduction from baseline of 10 points or more", "setting": "[9]", "result": "25 (61.0) n (%)"}, {"measurement": "UAS7 Change from baseline Mean (SD)", "setting": "[10]", "result": "−15.94 (12.03)"}, {"measurement": "UAS7 Change from baseline Median", "setting": "[10]", "result": "−15.00"}, {"measurement": "UAS7 Mean (SD)", "setting": "[10]", "result": "14.10 (11.23)"}, {"measurement": "UAS7 Median", "setting": "[10]", "result": 14.00}, {"measurement": "UAS7 Percent change from baseline Mean (SD)", "setting": "[10]", "result": "−52.07 (35.76) %"}, {"measurement": "UAS7 Percent change from baseline Median", "setting": "[10]", "result": "−47.83", "unit": "%"}, {"measurement": "UAS7 Change from baseline Mean (SD)", "setting": "[11]", "result": "−26.03 (14.05)"}, {"measurement": "UAS7 Change from baseline Median", "setting": "[11]", "result": "−26.58"}, {"measurement": "UAS7 Median", "setting": "[11]", "result": 3.00}, {"measurement": "UAS7 Percent change from baseline Mean (SD)", "setting": "[11]", "result": "−78.40 (28.08) %"}, {"measurement": "UAS7 Percent change from baseline Median", "setting": "[11]", "result": "−89.66", "unit": "%"}, {"measurement": "Non-responder, UAS7 reduction from baseline of 10 points or more", "setting": "[12]", "result": "15 (42.9) n (%)"}, {"measurement": "OR for rilzabrutinib vs. placebo, UAS7 reduction of 10 points or more", "setting": "[12]", "result": 1.770}, {"measurement": "RRD (%) for rilzabrutinib vs. placebo, UAS7 reduction of 10 points or more", "setting": "[12]", "result": 14.6, "unit": "%"}, {"measurement": "Responder, UAS7 reduction from baseline of 10 points or more", "setting": "[12]", "result": "20 (57.1) n (%)"}, {"measurement": "Non-responder, UAS7 reduction from baseline of 10 points or more", "setting": "[13]", "result": "18 (43.9) n (%)"}, {"measurement": "OR for rilzabrutinib vs. placebo, UAS7 reduction of 10 points or more", "setting": "[13]", "result": 1.899}, {"measurement": "RRD (%) for rilzabrutinib vs. placebo, UAS7 reduction of 10 points or more", "setting": "[13]", "result": 15.6, "unit": "%"}, {"measurement": "Responder, UAS7 reduction from baseline of 10 points or more", "setting": "[13]", "result": "23 (56.1) n (%)"}, {"measurement": "UAS7 Change from baseline Mean (SD)", "setting": "[14]", "result": "−14.03 (11.20)"}, {"measurement": "UAS7 Change from baseline Median", "setting": "[14]", "result": "−12.75"}, {"measurement": "UAS7 Mean (SD)", "setting": "[14]", "result": "15.55 (11.97)"}, {"measurement": "UAS7 Median", "setting": "[14]", "result": 14.88}, {"measurement": "UAS7 Percent change from baseline Mean (SD)", "setting": "[14]", "result": "−48.14 (36.14) %"}]}
